Laboratory results taken from patent US11058772B2, “(Bacterio)chlorophyll photosensitizers for treatment of eye diseases and disorders” (Yeda Research and Development Co. Ltd., priority 2011, dated 2021).

Columns and labels:
[1] = system: rabbit cornea; assay: Ex-vivo ESR measurements of rabbit corneas; conditions: cornea strips, 4-POBN 65 mM, ethanol 8%
Description: All ESR measurements were carried out using a Magnettech ESR Miniscope MS 100 Spectrometer (Germany), with a Microwave X-band Bridge. The ESR spectrometer operates at 9.3-9.55 GHz, 20 mW microwave power. ESR measurements were carried out at room temperature in glass capillaries or flat cells. Eyes of rabbits were enucleated post mortem. The corneas were de-epithelialized mechanically and corneal strips, 5 mm in width, were cut with a self-constructed double-blade cutter. The strips were immediately immersed for 30 min in solutions containing 4-POBN (65 mM) and ethanol (8%), and either Bchl-S or RF-D. Next, the strips were washed with saline and put in the flat-cells (0.5×5 mm^3) for NIR/UVA illumination followed by ESR measurements with the aforementioned Miniscope.

[2] = system: rabbit sclera; assay: Biomechanical testing of rabbit sclera treated ex vivo, external NIR illumination; conditions: 2.5 mg/ml 30 min, external NIR 30 min
Description: The opposite side of the sclera served as control. Scleral strips, 4 mm in width, were cut at the equatorial treated area and the opposite sclera, and stress-strain measurements were performed using a biomaterial tester.
(§1) The corneal and scleral strips were clamped horizontally, at a distance of 6 mm, between the jaws of a microcomputer-controlled biomaterial tester (Minimat, Germany) with a 200 Newton force cell (FIG. 1). Controlled tightening of screws was performed with a calibrated screwdriver at a preset torque of 9 cN.m (Torqueleader, England). The strain was increased linearly at a rate of 1.0 mm/min and was measured up to tissue rupture. Young's modulus was calculated by the testing machine. Ultimate stress and Young's modulus were expressed in Mega Pascal (MPa) units.
Stress-strain tests of sclera of enucleated rabbits' eyes were performed following treatment with WST11 (2.5 mg/ml) as described in Materials and Methods. After photosensitizer impregnation, the sclera was illuminated by applying the laser beam directly onto the treated area (external illumination), using a flat optical fiber that run along a curved plastic or metal glide as shown in FIG. 17A. Strips of the sclera were cut and tested.

[3] = system: rabbit cornea; assay: Stress-strain measurements of in-vivo treated corneas
Description: Twelve to twenty five weeks old rabbits (2.5-3 Kg weight) were used. They were anesthetized by intramuscular (i.m.) injection of 35 mg/kg ketamine (Rhone Merieux, Lyon, France) and 5 mg/kg xylazine (Vitamed, Binyamina, Israel). Usually, 16 rabbits were assigned for bacteriochlorophyll treatment. After de-epithelialization, one eye of each rabbit was treated topically with a test compound in saline for 10, 20 and 30 minutes using an eye cap (12 mm in diameter), followed by NIR illumination for 10, 20 or 30 minutes (755 nm, 10 mW/cm^2). The other eye served as untreated control. To prevent exposure of the limbal stem cells, the illuminated area was restricted by an aluminum foil mask with an 8 mm diameter central opening. To determine the role of dextran, 12 rabbits were divided into 4 treatment groups of 3 rabbits each: group 1, the Bchl-S group, was treated with a saline solution of a bacteriochlorophyll derivative; group 2, the Bchl-D group, treated with a bacteriochlorophyll-dextran solution. Both groups were incubated with the test compound for 20-min, followed by NIR illumination (755 nm, 10 mW/cm^2) for 30 minutes. Group 3, the RF group, was treated with riboflavin without dextran, and group 4, the RF-D group was treated with RF-dextran solution (RF-D). Both groups were incubated with RF or RF-D solutions for 30-minute, followed by UVA illumination (370 nm, 3 mW/cm^2) for 30 minutes. An ophthalmic ointment containing dexamethasone 0.1%, neomycin and polymixin B (Maxitrol®, Alcon, Belgium) was applied on the treated eyes once daily for two weeks. Four weeks after the treatment the rabbits were sacrificed, and the corneoscleral rings were removed and placed on paraffin hemisphere buttons of matching shape to assure accurate sectioning without stretching the tissue. Corneal strips, 4±0.2 mm in width, were cut from the epithelial side, as described above in the ex-vivo section. The corneal strips were transferred to the biomechanical tester without delay.
as §1
Corneas of 16 live rabbits were pretreated for 10 (n=4), 20 (n=6) and 30 (n=6) minutes with WST11-S (2.5 mg/ml). NIR illumination (755 nm, 10 mW/cm^2) was then delivered for 30 minutes. […] Results are shown in FIGS. 9A-9B, and in Tables 1 and 2.
To determine the role of dextran, the photochemical treatment with a formulation of WST11 2.5 mg/ml containing 20% dextran T-500 (WST11-D) was examined. Six rabbits were examined: 3 rabbits were pretreated for 20 min with WST11-S solution and 3 with WST11-D solution, followed by NIR illumination for 30 minutes. Additional 4 rabbits were treated with RF (n=2) or RF-D (n=2) for 30 minutes, followed by 30-min UVA irradiation (370 nm, 3 mW/cm^2).

[4] = system: rabbit cornea; assay: Penetration depth in cornea from aqueous 65% sucrose solution; assay type: in vivo; conditions: 2.5 mg/ml in aqueous 65% sucrose
Description: Eyes of rabbits were enucleated and deepithelialised mechanically post mortem. The eyes were exposed to Bchl-S solution using an eye cap for 5, 10, and 30 minutes and to Bchl-D solution for 10 and 30 min, in darkness. Controls: untreated eyes, and one eye treated with dextran-500 only for 30 min in darkness. Following this pretreatment, the corneas were briefly rinsed with saline and the central 8-mm buttons were trephined, removed, wrapped in aluminum foil and frozen on dry ice until further use. Central serial corneal sagittal slices (12 μm) were cut with a cryomicrotome, mounted on a microscope glass slide and stored frozen in −70° C. until use. For measurement of fluorescence, the individual slices were placed on the microscope base and a photographic record was immediately taken. Fluorescence intensity of Bchl-S or Bchl-D treated corneas from 3 serial cryo sections was recorded at 760 nm, upon excitation at 740 nm, using a fluorescence microscope (BX61 Olympus, Japan) equipped with CCD camera (Cascade 512B, Roper Sci., USA) and a long pass filter of above 760 nm. The digital data was analyzed, using ImageJ software (NIH, USA). […]

[5] = 20 min pretreatment, saline or 20% dextran T-500 formulation, 30 min NIR
[6] = 30 days, 30 min incubation, 30 min NIR, vs untreated fellow eyes, dipotassium salt
[7] = 30 days, 30 min incubation, 30 min NIR, vs untreated fellow eyes, listed as WST11-S, dipotassium salt
[8] = one month, 10 min incubation, 30 min NIR
[9] = one month, 20 min incubation, 30 min NIR

For CCC1C2=Cc3c(C)c(C(=O)NCCS(=O)(=O)[O-])c4[n]3[Pd][n]3c(c(C)c(C(C)=O)c3=CC(=N2)C1C)=CC1=NC(=C4CC(=O)OC)C(CCC(=O)[O-])C1C.[K+].[K+] (stereo not shown) [WST11, Palladium 3^1-oxo-15-methoxycarbonylmethyl-rhodobacteriochlorin 13^1-(2-sulfoethyl)amide dipotassium salt], the “ESR signals of ROS trapped in the treated cornea” value [1] was “no traces of singlet oxygen”, the mean maximal stress ([2]; control 2.77±0.99) was 7.6±0.99 MPa and the “mean Young's modulus” value ([2]; control 15.2±7.5) was 45.6±3.9 MPa. The “increase in Young's modulus compared with untreated corneas of fellow eyes” value [3, 5] was “approximately two-fold increase”, the “increase in mean ultimate stress compared with untreated corneas of fellow eyes” value [3, 5] was “approximately two-fold increase” and the “Mean Young's Modulus Intensity” value ([3]; 30 days, 30 min incubation 2.5 mg/ml, 30 min NIR) was 32 ± 3.6 MPa. The “Mean ultimate stress Intensity” value ([3]; 30 days, 30 min incubation 2.5 mg/ml, 30 min NIR 755 nm 10 mW/cm^2) was 6.91 ± 0.53 MPa, the “Mean Young's Modulus Increase %” value [3, 6] was 174% and the “Mean ultimate stress Increase %” value [3, 6] was 111%. The “Mean Young's Modulus Increase %” value [3, 7] was 173%, the “Mean ultimate stress Increase %” value [3, 7] was 126% and the “Mean Young's Modulus Intensity” value [3, 8] was 13.9 ± 3.9 MPa. The “Mean ultimate stress Increase %” value [3, 8] was 45%, the “Mean ultimate stress Intensity” value [3, 8] was 4.51 ± 1.85 MPa and the “Mean Young's Modulus Increase %” value ([3]; one month, 10 min incubation, 30 min NIR, dipotassium salt) was 9%. For the same molecule, the “Mean Young's Modulus Increase %” value ([3]; one month, 10 min incubation, 30 min NIR, listed as WST11-S, dipotassium salt) was 10%, the “Mean Young's Modulus Increase %” value [3, 9] was 79% and the “Mean Young's Modulus Intensity” value [3, 9] was 22.7 ± 3.82 MPa. The “Mean ultimate stress Increase %” value [3, 9] was 113%, the “Mean ultimate stress Intensity” value [3, 9] was 6.66 ± 0.67 MPa and the “penetration, fraction of the outer stroma” value ([4]; 10-min incubation) was “⅓”. For the same molecule, the “penetration, fraction of the outer stroma” value ([4]; 30-min incubation) was “½”.
